In patent US10807995B2, “Thienothiophene compounds for long-acting injectable compositions and related methods” (priority 2018, dated 2020):
Values joined by “and” are separate entries in the source; they are usually repeats but may differ in a detail not shown here. Equal values may be shown once.

Legend:
[1] = Whole blood stability assay; assay type: in vitro ADME; conditions: prodrug 50 nM in fresh pooled human whole blood, 37 degrees C.; read-out: t1/2 at 37 degrees C. in human whole blood
Protocol: Naltrexone prodrug stability was assessed using freshly collected whole blood (within 24-hr collection) from pooled human (n=3) donors. The incubation mixtures were prepared by spiking the prodrugs into pre-warmed (37 degrees C.) fresh whole blood to a final concentration of 50 nM. After gentle mixing, aliquots of incubation mixtures were immediately transferred into four different 96-deep well plates. One plate was used for each time point. The plates were incubated at 37 degrees C. at a shaking speed of 100 rpm. At time points 15, 30, 60 and 120 minutes, the reaction was quenched by addition of a mixture of water and acetonitrile containing the internal standard (naltrexone-D3). Time point 0 minutes was prepared separately by spiking the prodrugs into a quenched whole blood to obtain a final concentration of 50 nM. All samples were vortexed at a low speed for 15 min and centrifuged at 3900 rpm for 15 min. Supernatants were transferred into 96-well plates for LC-MS/MS analysis to monitor the depletion of the prodrugs and the formation of naltrexone.
The amount of remaining prodrug and released naltrexone for each sample was quantitated against the calibration curves prepared with the whole blood. The human whole blood was purchased from BioreclamationIVT (Westbury, N.Y., USA). Naltrexone-D3 was purchased from Cerilliant® (Round Rock, Tex., USA). […] Where multiple runs have been completed, average values are reported.

[2] = Pharmacokinetic evaluation of the release of naltrexone from Compound 3 in rats following a single intramuscular injection; assay type: in vivo, Sprague-Dawley rats; conditions: for Compound 3 conc.: plasma of individual rats (Rat 1-6)
Protocol: Six male Sprague-Dawley rats were allowed to acclimate to the test facility for at least 3 days prior to study start. For dose administration of Compound 3, the rats were lightly anesthetized with isofluorane, the hind leg shaved and dosed intramuscularly with the formulation using a 20 G needle. […] Serial whole blood samples were collected via sublingual route (˜150 μL) at 1, 8, and 24 hours post dose, and at 2, 4, 7, 10, 15, 22, 24, 28, 35, 42, 49, 56 and 63 days post dose.
Blood samples were placed into K2EDTA blood collection tubes. After collection, blood samples were maintained chilled (on wet ice) and centrifuged (11,500 rpm for 2 minutes at 5 degrees C.) within 30 minutes to obtain plasma. Plasma was transferred into a single vial, 1.5 mL screw cap micro-centrifuge tube with inserts and stored at −80 degrees C. until analysis.
The formulation dosed was a crystalline suspension of Compound 3 (44.4 milligrams of Compound 3 dosed per animal), wherein the crystalline test article was characterized with a particle size distribution of Dv10=1.6 μm, Dv50=4.1 μm, and Dv90=7.7 μm (as measured via laser diffraction). The formulation was prepared the day before dosing. Details of the formulation dosed are described in Table D below.
Results of the above intramuscular rat study of Compound 3 are shown in Tables E and F. In particular, Table E reports the average blood plasma levels of naltrexone in rat (n=6) over 63 days following intramuscular administration.

[3] = rat plasma over 63 days after single IM Compound 3

Q: Which half-life at 50 nM [1] does the source give for `O=C(Cc1csc2c(CC(=O)Oc3ccc4c5c3O[C@H]3C(=O)CC[C@@]6(O)[C@@H](C4)N(CC4CC4)CC[C@]536)csc12)Oc1ccc2c3c1O[C@H]1C(=O)CC[C@@]4(O)[C@@H](C2)N(CC2CC2)CC[C@]314` [Compound 6, bis((4R,4aS,7aR,12bS)-3-(cyclopropylmethyl)-4a-hydroxy-7-oxo-2,3,4,4a,5,6,7,7a-octahydro-1H-4,12-methanobenzofuro[3,2-e]isoquinolin-9-yl) 2,2′-(thieno[3,2-b]thiophene-3,6-diyl)diacetate] here?
A: 11 min

Q: For `O=C(Cc1csc2scc(CC(=O)Oc3ccc4c5c3O[C@H]3C(=O)CC[C@@]6(O)[C@@H](C4)N(CC4CC4)CC[C@]536)c12)Oc1ccc2c3c1O[C@H]1C(=O)CC[C@@]4(O)[C@@H](C2)N(CC2CC2)CC[C@]314` [Compound 2, bis((4R,4aS,7aR,12bS)-3-(cyclopropylmethyl)-4a-hydroxy-7-oxo-2,3,4,4a,5,6,7,7a-octahydro-1H-4,12-methanobenzofuro[3,2-e]isoquinolin-9-yl) 2,2′-(thieno[2,3-b]thiophene-3,4-diyl)diacetate], which half-life at 50 nM [1] is on record?
A: 15.7 min

Q: With `O=C(Cc1cc2cc(CC(=O)Oc3ccc4c5c3O[C@H]3C(=O)CC[C@@]6(O)[C@@H](C4)N(CC4CC4)CC[C@]536)sc2s1)Oc1ccc2c3c1O[C@H]1C(=O)CC[C@@]4(O)[C@@H](C2)N(CC2CC2)CC[C@]314` [Compound 1, bis((4R,4aS,7aR,12bS)-3-(cyclopropylmethyl)-4a-hydroxy-7-oxo-2,3,4,4a,5,6,7,7a-octahydro-1H-4,12-methanobenzofuro[3,2-e]isoquinolin-9-yl) 2,2′-(thieno[2,3-b]thiophene-2,5-diyl)diacetate] as the molecule, how does the half-life at 50 nM [1] read?
A: 11 min

Q: Which half-life at 50 nM [1] does the source give for `O=C(CCc1cc2sc(CCC(=O)Oc3ccc4c5c3O[C@H]3C(=O)CC[C@@]6(O)[C@@H](C4)N(CC4CC4)CC[C@]536)cc2s1)Oc1ccc2c3c1O[C@H]1C(=O)CC[C@@]4(O)[C@@H](C2)N(CC2CC2)CC[C@]314` [Compound 5, bis((4R,4aS,7aR,12bS)-3-(cyclopropylmethyl)-4a-hydroxy-7-oxo-2,3,4,4a,5,6,7,7a-octahydro-1H-4,12-methanobenzofuro[3,2-e]isoquinolin-9-yl) 3,3′-(thieno[3,2-b]thiophene-2,5-diyl)dipropionate] here?
A: 17.1 min

Q: Which half-life at 50 nM [1] does the source give for `O=C(Oc1ccc2c3c1O[C@H]1C(=O)CC[C@@]4(O)[C@@H](C2)N(CC2CC2)CC[C@]314)c1ccc(C(=O)Oc2ccc3c4c2O[C@H]2C(=O)CC[C@@]5(O)[C@@H](C3)N(CC3CC3)CC[C@]425)cc1` [Reference Compound A, NTX-3-terephthaloyl-NTX, reference compound] here?
A: 54.7 min

Q: For `O=C(Cc1cc2sc(CC(=O)Oc3ccc4c5c3O[C@H]3C(=O)CC[C@@]6(O)[C@@H](C4)N(CC4CC4)CC[C@]536)cc2s1)Oc1ccc2c3c1O[C@H]1C(=O)CC[C@@]4(O)[C@@H](C2)N(CC2CC2)CC[C@]314` [Compound 3, bis((4R,4aS,7aR,12bS)-3-(cyclopropylmethyl)-4a-hydroxy-7-oxo-2,3,4,4a,5,6,7,7a-octahydro-1H-4,12-methanobenzofuro[3,2-e]isoquinolin-9-yl) 2,2′-(thieno[3,2-b]thiophene-2,5-diyl)diacetate], which half-life at 50 nM [1] is on record?
A: 6.46 min

Q: And the “conversion of Compound 3 to naltrexone” value ([2]; in rats over 63 days)?
A: efficient conversion

Q: What about the “Compound 3 conc.” value ([2]; single IM Compound 3, day 0.042 (1 hr)) of the same molecule?
A: <0.1 ng/mL

Q: And the “Compound 3 conc.” value ([2]; single IM Compound 3, day 0.33 (8 hr))?
A: <0.1 ng/mL

Q: And the “Compound 3 conc.” value ([2]; single IM Compound 3, day 1)?
A: <0.1 ng/mL

Q: And the “Compound 3 conc.” value ([2]; single IM Compound 3, day 2)?
A: <0.1 ng/mL

Q: What about the “Compound 3 conc.” value ([2]; single IM Compound 3, day 4) of the same molecule?
A: <0.1 ng/mL

Q: What about the “Compound 3 conc.” value ([2]; single IM Compound 3, day 7) of the same molecule?
A: <0.1 ng/mL (5×) and 0.161 ng/mL

Q: And the “Compound 3 conc.” value ([2]; single IM Compound 3, day 10)?
A: <0.1 ng/mL

Q: What about the “Compound 3 conc.” value ([2]; single IM Compound 3, day 15) of the same molecule?
A: <0.1 ng/mL

Q: What about the “Compound 3 conc.” value ([2]; single IM Compound 3, day 22) of the same molecule?
A: <0.1 ng/mL

Q: What about the “Compound 3 conc.” value ([2]; single IM Compound 3, day 24) of the same molecule?
A: <0.1 ng/mL

Q: And the “Compound 3 conc.” value ([2]; single IM Compound 3, day 28)?
A: <0.1 ng/mL

Q: What about the “Compound 3 conc.” value ([2]; single IM Compound 3, day 35) of the same molecule?
A: <0.1 ng/mL

Q: What about the “Compound 3 conc.” value ([2]; single IM Compound 3, day 42) of the same molecule?
A: <0.1 ng/mL (5×) and 0.128 ng/mL

Q: And the “Compound 3 conc.” value ([2]; single IM Compound 3, day 49)?
A: 0.134 ng/mL and 0.131 ng/mL and 0.138 ng/mL and <0.1 ng/mL (2×) and 0.143 ng/mL

Q: What about the “Compound 3 conc.” value ([2]; single IM Compound 3, day 56) of the same molecule?
A: 2.02 ng/mL and 0.753 ng/mL and 0.501 ng/mL and 0.281 ng/mL and 0.245 ng/mL and 0.237 ng/mL

Q: And the “Compound 3 conc.” value ([2]; single IM Compound 3, day 63)?
A: 0.184 ng/mL and 0.229 ng/mL and 0.223 ng/mL and 0.234 ng/mL and 0.255 ng/mL and 0.207 ng/mL

Q: And the “concentrations of parent Compound 3” value [2, 3]?
A: generally low to not measurable

Q: Which “concentrations of the resultant intermediate Compound 3i” value [2, 3] does the source give for `O=C(O)Cc1cc2sc(CC(=O)Oc3ccc4c5c3O[C@H]3C(=O)CC[C@@]6(O)[C@@H](C4)N(CC4CC4)CC[C@]536)cc2s1` [Compound 3i, 2-(5-(2-(((4R,4aS,7aR,12bS)-3-(cyclopropylmethyl)-4a-hydroxy-7-oxo-2,3,4,4a,5,6,7,7a-octahydro-1H-4,12-methanobenzofuro[3,2-e]isoquinolin-9-yl)oxy)-2-oxoethyl)thieno[3,2-b]thiophen-2-yl)acetic acid] here?
A: generally low to not measurable

Q: What about the “Compound 3i conc.” value ([2]; resultant intermediate in plasma of individual rats (Rat 1-6) after single IM Compound 3, day 2) of the same molecule?
A: <0.2 ng/mL

Q: What about the “Compound 3i conc.” value ([2]; resultant intermediate in plasma of individual rats (Rat 1-6) after single IM Compound 3, day 4) of the same molecule?
A: <0.2 ng/mL

Q: What about the “Compound 3i conc.” value ([2]; resultant intermediate in plasma of individual rats (Rat 1-6) after single IM Compound 3, day 7) of the same molecule?
A: <0.2 ng/mL

Q: And the “Compound 3i conc.” value ([2]; resultant intermediate in plasma of individual rats (Rat 1-6) after single IM Compound 3, day 10)?
A: <0.2 ng/mL

Q: And the “Compound 3i conc.” value ([2]; resultant intermediate in plasma of individual rats (Rat 1-6) after single IM Compound 3, day 15)?
A: <0.2 ng/mL

Q: And the “Compound 3i conc.” value ([2]; resultant intermediate in plasma of individual rats (Rat 1-6) after single IM Compound 3, day 22)?
A: <0.2 ng/mL

Q: And the “Compound 3i conc.” value ([2]; resultant intermediate in plasma of individual rats (Rat 1-6) after single IM Compound 3, day 24)?
A: <0.2 ng/mL

Q: And the “Compound 3i conc.” value ([2]; resultant intermediate in plasma of individual rats (Rat 1-6) after single IM Compound 3, day 28)?
A: <0.2 ng/mL

Q: What about the “Compound 3i conc.” value ([2]; resultant intermediate in plasma of individual rats (Rat 1-6) after single IM Compound 3, day 35) of the same molecule?
A: <0.2 ng/mL

Q: And the “Compound 3i conc.” value ([2]; resultant intermediate in plasma of individual rats (Rat 1-6) after single IM Compound 3, day 42)?
A: <0.2 ng/mL (4×) and 0.805 ng/mL and 0.149 ng/mL

Q: Which half-life at 50 nM [1] does the source give for `Cc1c(CC(=O)Oc2ccc3c4c2O[C@H]2C(=O)CC[C@@]5(O)[C@@H](C3)N(CC3CC3)CC[C@]425)sc2c(C)c(CC(=O)Oc3ccc4c5c3O[C@H]3C(=O)CC[C@@]6(O)[C@@H](C4)N(CC4CC4)CC[C@]536)sc12` [Compound 4, bis((4R,4aS,7aR,12bS)-3-(cyclopropylmethyl)-4a-hydroxy-7-oxo-2,3,4,4a,5,6,7,7a-octahydro-1H-4,12-methanobenzofuro[3,2-e]isoquinolin-9-yl) 2,2′-(3,6-dimethylthieno[3,2-b]thiophene-2,5-diyl)diacetate] here?
A: 20.7 min
